Data taken from ChEMBL document CHEMBL1201862, “PubChem BioAssay data set” (2004).
Active and inactive are the calls of the source.

How the values were obtained:
[1] = A549 cell cytotoxicity, dose response, cytotoxicity control, plate reader, cherry-pick, antagonist series (AID 743412); type: functional, cell-based
[2] = LGR2 antagonists, dose response, cell-based, HEK293, CRE-luciferase reporter, cherry pick (AID 743342); type: functional
cells [3] = type: functional, cell-based
cells [4] = type: functional, cell-based; remark: listed apart in the source
[5] = human group III sPLA2 inhibitors, dose response, biochemical, QFRET, IC50 (AID 743457);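 further: green fluorescence rise as the enzyme cleaves BODIPY PC-A2 in liposomes; potency for inhibition of the enzyme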
[6] = ADAM10 inhibitors, peptide cleavage, dose response, biochemical, QFRET (AID 743254);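 further: ADAM10 enzyme with the DM2 quenched FRET peptide as substrate; EDANS fluorescence gain as the protease cuts the substrate; inhibitor potency against ADAM10 proteolytic activity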
[7] = molecular target: Disintegrin and metalloproteinase domain-containing protein 17 (Homo sapiens, UniProt P78536); test: ADAM17 protease inhibitors, dose response, counter-screen for ADAM10 exosite inhibitor project, biochemical, quenched FRET substrate (AID 743253)
Chain of Disintegrin and metalloproteinase domain-containing protein 17 (P78536 whole entry, the tested form may be a part): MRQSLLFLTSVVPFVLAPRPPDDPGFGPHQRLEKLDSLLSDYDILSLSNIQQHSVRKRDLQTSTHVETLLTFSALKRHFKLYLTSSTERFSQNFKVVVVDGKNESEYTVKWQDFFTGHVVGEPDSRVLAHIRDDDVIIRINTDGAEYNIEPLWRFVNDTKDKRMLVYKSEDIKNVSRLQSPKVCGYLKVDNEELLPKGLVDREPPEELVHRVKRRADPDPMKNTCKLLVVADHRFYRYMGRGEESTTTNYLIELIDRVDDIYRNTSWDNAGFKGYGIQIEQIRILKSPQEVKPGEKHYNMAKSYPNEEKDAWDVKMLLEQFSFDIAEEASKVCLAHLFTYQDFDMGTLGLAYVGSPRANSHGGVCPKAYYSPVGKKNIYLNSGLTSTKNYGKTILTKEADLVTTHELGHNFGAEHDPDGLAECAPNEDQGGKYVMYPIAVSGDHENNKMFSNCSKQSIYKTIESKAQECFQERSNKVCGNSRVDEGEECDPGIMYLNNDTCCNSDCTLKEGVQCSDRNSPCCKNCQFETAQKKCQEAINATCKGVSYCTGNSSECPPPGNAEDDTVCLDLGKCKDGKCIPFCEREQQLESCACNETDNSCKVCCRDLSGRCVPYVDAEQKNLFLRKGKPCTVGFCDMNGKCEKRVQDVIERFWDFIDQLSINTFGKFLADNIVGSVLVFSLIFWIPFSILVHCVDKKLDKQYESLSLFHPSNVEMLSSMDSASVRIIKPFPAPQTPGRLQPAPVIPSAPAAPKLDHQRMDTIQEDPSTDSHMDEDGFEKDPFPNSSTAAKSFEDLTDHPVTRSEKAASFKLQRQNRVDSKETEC

[8] = IGROV1 ovarian cancer cell cytotoxicity, dose response, PAX8 inhibitor project, plate reader, dry powder samples (AID 743043); type: functional, cell-based; conditions: IGROV-1
[9] = A2780 ovarian cancer cell cytotoxicity, dose response, cytotoxicity control, plate reader, dry powder samples (AID 743046); type: functional, cell-based
[10] = NIH:OVCAR-3 ovarian cancer cell cytotoxicity, dose response, PAX8 inhibitor project, plate reader, dry powder samples (AID 743044); type: functional, cell-based
[11] = cytotoxicity in OVCAR8 ovarian cancer cells, dose response, PAX8 project, cell-based, plate reader, dry powder samples (AID 743197); type: functional; conditions: OVCAR-8
Paired box protein Pax-8 = Paired box protein Pax-8 (Homo sapiens, UniProt Q06710); test: inhibitors of PAX8-driven TPO luciferase reporter, dose response, RMG-I cells, cherry-pick (AID 687027); type: functional, cell-based;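 further: luciferase reporter driven by Pax8 target thyroperoxidase promoter measured by SteadyGlo luminescence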
Chain of Paired box protein Pax-8 (Q06710 whole entry): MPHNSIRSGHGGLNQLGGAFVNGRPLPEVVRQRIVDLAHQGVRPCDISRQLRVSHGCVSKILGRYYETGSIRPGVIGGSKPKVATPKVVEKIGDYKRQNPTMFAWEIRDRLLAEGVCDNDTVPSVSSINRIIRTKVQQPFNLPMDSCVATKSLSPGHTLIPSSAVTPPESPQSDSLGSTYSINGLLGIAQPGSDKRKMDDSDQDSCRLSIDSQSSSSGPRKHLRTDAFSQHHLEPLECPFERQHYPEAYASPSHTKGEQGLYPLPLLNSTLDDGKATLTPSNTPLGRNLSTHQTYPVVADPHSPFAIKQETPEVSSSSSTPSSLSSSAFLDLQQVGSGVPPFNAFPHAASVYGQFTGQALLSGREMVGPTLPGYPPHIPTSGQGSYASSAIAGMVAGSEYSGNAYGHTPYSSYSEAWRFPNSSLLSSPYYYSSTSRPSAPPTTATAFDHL

[12] = molecular target: T1, Low molecular weight phosphotyrosine protein phosphatase (Homo sapiens, UniProt P24666); type: functional; conditions: read-out: IC50_Mean
T1 sequence (P24666 whole entry): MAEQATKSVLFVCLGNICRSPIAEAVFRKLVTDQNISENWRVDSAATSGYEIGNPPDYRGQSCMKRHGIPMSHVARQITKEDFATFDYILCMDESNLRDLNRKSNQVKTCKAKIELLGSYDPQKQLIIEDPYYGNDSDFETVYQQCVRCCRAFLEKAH

[13] = molecular target: T1, Low molecular weight phosphotyrosine protein phosphatase; type: functional; conditions: read-out: IC50_Mean; remark: listed apart in the source
[14] = molecular target: T2, Carboxy-terminal domain RNA polymerase II polypeptide A small phosphatase 1 (Homo sapiens, UniProt Q9GZU7); test: inhibitors of CTDSP1, concentration-response testing, biochemical assay, absorbance-based, actives from ultra-high-throughput screening (AID 540297); type: functional
T2 sequence (Q9GZU7 whole entry): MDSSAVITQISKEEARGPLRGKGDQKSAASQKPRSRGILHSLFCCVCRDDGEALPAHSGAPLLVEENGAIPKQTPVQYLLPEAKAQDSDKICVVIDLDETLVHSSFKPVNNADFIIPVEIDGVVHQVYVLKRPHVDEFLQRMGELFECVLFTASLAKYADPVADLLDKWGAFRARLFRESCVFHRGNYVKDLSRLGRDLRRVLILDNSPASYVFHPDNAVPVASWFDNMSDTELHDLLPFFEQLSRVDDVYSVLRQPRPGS

[15] = molecular target: T3, Tyrosine-protein phosphatase non-receptor type 22 (Homo sapiens, UniProt Q9Y2R2); test: LYP phosphatase inhibition for selectivity, dose response, selectivity assay for LMPTP inhibitor project, biochemical, fluorescence, LYP catalytic domain (AID 652006); type: functional; conditions: read-out: IC50_Mean
T3 sequence (Q9Y2R2 whole entry): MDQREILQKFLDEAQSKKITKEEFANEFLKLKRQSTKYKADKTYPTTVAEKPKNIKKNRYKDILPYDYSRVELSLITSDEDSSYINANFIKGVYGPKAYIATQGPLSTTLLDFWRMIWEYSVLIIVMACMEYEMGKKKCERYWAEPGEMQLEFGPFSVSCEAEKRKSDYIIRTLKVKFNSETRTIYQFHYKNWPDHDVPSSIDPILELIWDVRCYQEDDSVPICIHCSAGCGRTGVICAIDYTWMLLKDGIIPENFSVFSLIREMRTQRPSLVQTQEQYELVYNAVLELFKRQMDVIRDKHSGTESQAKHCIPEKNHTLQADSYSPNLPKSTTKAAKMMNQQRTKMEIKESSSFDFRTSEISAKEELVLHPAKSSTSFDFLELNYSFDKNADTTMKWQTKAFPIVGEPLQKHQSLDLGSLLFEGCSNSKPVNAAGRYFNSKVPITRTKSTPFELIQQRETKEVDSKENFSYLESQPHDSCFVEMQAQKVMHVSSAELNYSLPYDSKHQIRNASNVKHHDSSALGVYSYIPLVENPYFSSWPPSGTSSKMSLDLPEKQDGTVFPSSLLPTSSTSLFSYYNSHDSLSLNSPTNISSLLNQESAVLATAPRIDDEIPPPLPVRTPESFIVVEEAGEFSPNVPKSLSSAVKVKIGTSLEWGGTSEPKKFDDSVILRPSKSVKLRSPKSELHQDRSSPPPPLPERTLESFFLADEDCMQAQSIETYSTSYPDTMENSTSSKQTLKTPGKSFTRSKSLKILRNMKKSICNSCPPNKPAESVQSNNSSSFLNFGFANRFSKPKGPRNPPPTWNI

BHK-21 = test: BHK-21 cell toxicity, dose response, cytotoxicity control, plate reader, cherry-pick samples (AID 687030); type: functional, cell-based; conditions: Mesocricetus auratus
A549 = test: A549 cell toxicity, dose response, cytotoxicity control, plate reader, cherry-pick samples (AID 687028); type: functional, cell-based; conditions: Homo sapiens
[16] = molecular target: ADP-ribosylation factor GTPase-activating protein 1 (Rattus norvegicus, UniProt Q62848); test: Fluorescence polarization-based biochemical high throughput dose response screening assay to identify inhibitors of ADP-ribosylation factor GTPase activating protein 1 (ARFGAP1).; type: functional
Chain of ADP-ribosylation factor GTPase-activating protein 1 (Q62848 whole entry): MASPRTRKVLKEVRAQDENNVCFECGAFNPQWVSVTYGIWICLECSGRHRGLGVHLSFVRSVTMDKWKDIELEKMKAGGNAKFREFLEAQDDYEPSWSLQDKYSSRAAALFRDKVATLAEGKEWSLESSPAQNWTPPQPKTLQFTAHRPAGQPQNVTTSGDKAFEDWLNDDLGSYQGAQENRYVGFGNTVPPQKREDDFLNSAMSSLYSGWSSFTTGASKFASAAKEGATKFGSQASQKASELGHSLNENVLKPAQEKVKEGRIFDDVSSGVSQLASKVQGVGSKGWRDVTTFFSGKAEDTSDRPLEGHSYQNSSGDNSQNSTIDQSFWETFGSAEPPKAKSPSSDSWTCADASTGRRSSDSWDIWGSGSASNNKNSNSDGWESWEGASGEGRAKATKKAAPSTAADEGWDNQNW

Protein Wnt-3a = Protein Wnt-3a (Mus musculus, UniProt P27467); test: SAR analysis of small molecule antagonists of Gli-SUFU in a Wnt3a luminescent reporter assay.; type: functional
Chain of Protein Wnt-3a (P27467 whole entry): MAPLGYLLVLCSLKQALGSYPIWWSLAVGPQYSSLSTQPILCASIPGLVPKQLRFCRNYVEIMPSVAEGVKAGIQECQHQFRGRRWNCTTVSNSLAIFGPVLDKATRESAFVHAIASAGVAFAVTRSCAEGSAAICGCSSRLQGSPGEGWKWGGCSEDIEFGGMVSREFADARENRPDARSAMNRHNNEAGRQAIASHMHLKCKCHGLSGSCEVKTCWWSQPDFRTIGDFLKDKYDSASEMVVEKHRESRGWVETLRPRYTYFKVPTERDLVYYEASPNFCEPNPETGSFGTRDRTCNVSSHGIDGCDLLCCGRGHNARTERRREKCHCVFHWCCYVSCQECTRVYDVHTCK

[17] = molecular target: T4, Matrix metalloproteinase-14 (Homo sapiens, UniProt P50281); test: SAR confirmation of uHTS hits for a small molecule inhibitors of MT1-MMP activation in a fluorescence assay.; type: functional
[18] = molecular target: T4, Matrix metalloproteinase-14; test: Dose Response confirmation of uHTS hits for a small molecule inhibitors of MT1-MMP activation in a fluorescence assay set 1.; type: functional
[19] = miR-122 activators in hepatoma reporter cells, dose response, cell-based, Huh7 psiCHECK-miR122, Renilla luciferase, cherry-picked (AID 651956); type: functional;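 further: huh7 hepatoma cells stably carrying a psiCHECK-2 miR-122 sensor plasmid; renilla luciferase signal reporting endogenous miR-122 activity after 48 h compound exposure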
[20] = HEK293 cell viability, dose response, counter-screen for EBV LMP1 inhibitor project, dry powder, set 2 (AID 624374); type: functional
[21] = Counterscreen for activators of the function of SWI/SNF related, matrix associated, actin dependent regulator of chromatin, subfamily a, member 2 (SMARCA2, BRM): Luminescence-based cell-based high throughput dose response assay to identify non-selective compounds using the VP16 reporter assay.; type: functional
[22] = molecular target: SWI/SNF-related matrix-associated actin-dependent regulator of chromatin subfamily A member 2 (Homo sapiens, UniProt P51531); test: Luminescence-based cell-based high throughput dose response assay to identify activators of the function of SWI/SNF related, matrix associated, actin dependent regulator of chromatin, subfamily a, member 2 (SMARCA2, BRM).; type: functional
Chain of SWI/SNF-related matrix-associated actin-dependent regulator of chromatin subfamily A member 2 (P51531 whole entry): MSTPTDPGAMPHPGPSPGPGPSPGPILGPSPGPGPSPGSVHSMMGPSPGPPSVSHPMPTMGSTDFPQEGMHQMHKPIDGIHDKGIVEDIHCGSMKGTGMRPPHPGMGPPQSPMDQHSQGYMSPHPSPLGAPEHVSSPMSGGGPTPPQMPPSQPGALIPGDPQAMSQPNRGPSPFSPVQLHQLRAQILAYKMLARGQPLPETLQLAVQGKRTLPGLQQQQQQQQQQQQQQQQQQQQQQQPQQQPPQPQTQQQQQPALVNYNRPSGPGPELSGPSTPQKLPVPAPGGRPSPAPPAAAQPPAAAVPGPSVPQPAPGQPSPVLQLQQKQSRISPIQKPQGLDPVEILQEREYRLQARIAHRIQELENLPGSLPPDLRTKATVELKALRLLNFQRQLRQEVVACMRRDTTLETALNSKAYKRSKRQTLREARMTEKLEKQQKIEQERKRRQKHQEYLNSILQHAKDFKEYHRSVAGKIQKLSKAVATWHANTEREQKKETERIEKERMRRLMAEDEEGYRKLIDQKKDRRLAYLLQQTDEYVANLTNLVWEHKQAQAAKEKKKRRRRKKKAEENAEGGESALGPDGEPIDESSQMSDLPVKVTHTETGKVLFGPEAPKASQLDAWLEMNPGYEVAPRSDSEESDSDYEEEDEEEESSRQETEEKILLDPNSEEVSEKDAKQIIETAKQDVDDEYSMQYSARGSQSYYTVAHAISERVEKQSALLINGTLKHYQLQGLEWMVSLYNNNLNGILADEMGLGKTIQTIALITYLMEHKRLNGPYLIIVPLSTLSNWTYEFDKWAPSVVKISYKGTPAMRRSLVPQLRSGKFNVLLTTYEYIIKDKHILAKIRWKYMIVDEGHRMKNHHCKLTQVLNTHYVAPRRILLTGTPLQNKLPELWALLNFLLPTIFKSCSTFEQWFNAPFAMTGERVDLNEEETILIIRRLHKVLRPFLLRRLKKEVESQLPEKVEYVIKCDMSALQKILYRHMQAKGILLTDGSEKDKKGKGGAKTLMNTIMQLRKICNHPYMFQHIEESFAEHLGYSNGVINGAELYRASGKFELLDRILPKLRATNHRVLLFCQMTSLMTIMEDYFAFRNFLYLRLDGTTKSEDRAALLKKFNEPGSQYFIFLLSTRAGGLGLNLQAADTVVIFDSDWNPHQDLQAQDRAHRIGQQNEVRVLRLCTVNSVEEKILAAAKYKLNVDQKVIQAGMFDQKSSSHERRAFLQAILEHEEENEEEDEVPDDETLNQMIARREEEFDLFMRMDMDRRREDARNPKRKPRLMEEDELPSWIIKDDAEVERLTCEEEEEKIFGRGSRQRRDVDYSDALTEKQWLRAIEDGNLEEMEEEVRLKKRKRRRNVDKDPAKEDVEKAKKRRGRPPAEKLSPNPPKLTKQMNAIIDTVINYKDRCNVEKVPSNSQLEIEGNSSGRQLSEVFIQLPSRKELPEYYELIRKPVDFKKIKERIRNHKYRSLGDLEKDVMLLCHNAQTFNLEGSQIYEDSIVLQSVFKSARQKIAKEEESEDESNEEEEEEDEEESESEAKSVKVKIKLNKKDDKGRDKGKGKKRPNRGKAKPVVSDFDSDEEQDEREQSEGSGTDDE

SMILES: COc1ccc(NC(=O)N(C)C[C@@H]2OCCCC[C@H](C)Oc3ccc(NC(=O)C4CCCCC4)cc3C(=O)N([C@H](C)CO)C[C@@H]2C)cc1
- AC50 [1]: 27.8 µM (active)
- AC50 [2]: 2.67 µM (active)

SMILES: CC(CNC(=O)[C@@H](Cc1ccccc1)NC(=O)[C@H]1O[C@@H](n2cnc3c(=O)[nH]c(N)nc32)[C@H](O)[C@@H]1O)c1ccccc1 (stereo partly specified)
- EC50 (cells [3]): > 29.9 µM (inactive)
- IC50 (cells [4]): > 29.9 µM (inactive)

SMILES: Cc1cc(C(=O)NN=C(S)Nc2cccc(C(F)(F)F)c2)nn1C
- IC50 [5]: > 122 µM (inactive)

SMILES: CNC(=S)N/N=C/c1cn(CCOc2ccc(OC)cc2)c2ccccc12
- IC50 [6]: > 69.5 µM (inactive)
- IC50 [7]: > 69.5 µM (inactive)

SMILES: C[C@@H]1CN([C@H](C)CO)C(=O)c2cc(NS(=O)(=O)c3ccc(Cl)cc3)ccc2O[C@@H](C)CCCCO[C@H]1CN(C)S(=O)(=O)c1ccc(Cl)cc1
- AC50 [8]: 32.9 µM (active)
- AC50 [9]: 54.6 µM (active)
- AC50 [10]: 15.9 µM (active)
- AC50 [11]: 25.1 µM (active)
- AC50 (Paired box protein Pax-8): 4.76 µM (active)

SMILES: O=C(N/N=C/c1cccc(Br)c1)c1ccc(Br)cc1
- IC50 [12]: 39.7 µM (inactive)
- IC50 [13]: 12.2 µM (active)
- IC50 [14]: 4.51 µM (active)
- IC50 [15]: 41.4 µM (inactive)

SMILES: CN(c1cccc(NC(=O)c2ccc(C(C)(C)C)cc2)c1)S(C)(=O)=O
- AC50 (BHK-21): 22.6 µM (active)
- AC50 (A549): 23.1 µM (active)

SMILES: Cc1ccc2nc3c(O)n(CC(=O)N4CC(C)CC(C)C4)ncc-3c2c1 (stereo unspecified)
- IC50 [16]: 133 µM (inactive)

SMILES: O=C(Nc1cc(NCC2CCCO2)ncn1)c1ccccc1 (stereo unspecified)
- IC50 (Protein Wnt-3a): > 21.8 µM (inactive)

SMILES: Cc1c(C(=O)OCC(=O)NCC2CCCO2)oc2ccccc12 (stereo unspecified)
- IC50 [17]: > 80 µM (inactive)
- IC50 [18]: 11.9 µM (active)

SMILES: C[C@@H]1CN([C@H](C)CO)C(=O)c2cc(-c3cccc(C#N)c3)cnc2O[C@H]1CN(C)C(=O)C1CCC1
- AC50 [19]: 53.7 µM (active)

SMILES: C[C@@H]1CN([C@@H](C)CO)C(=O)c2c(c3ccccc3n2C)-c2ccccc2CO[C@@H]1CN(C)C(=O)Nc1ccc(F)cc1
- AbsAC35 [20]: 304.17 µM

SMILES: O=C1/C(=C/c2ccco2)Cc2ccccc21
- EC50 [21]: > 91.1 µM (inactive)
- EC50 [22]: > 91.1 µM (inactive)
